Data as given in patent US20260262643A1, “HERBICIDAL BENZOXAZINES” (FMC CORPORATION, priority 2022, published 2026).

Columns and labels:
kochia [1] = assay: Test A preemergence; type: in vivo, Bassia scoparia; details: 0 to 100 scale; for pest or weed control at 500 g/ha: 500 g ai/ha
Outline: (§1)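 Seeds in loam–sand blend received a directed preemergence soil spray of compound in non-phytotoxic solvent with surfactant; postemergence plants (2–10 cm, one- to two-leaf stage) were sprayed with the same formulation. After 10 days in greenhouse, injury was rated visually versus untreated controls, 0 (no effect) to 100 (complete control).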

ryegrass, Italian = assay: Test A postemergence; type: in vivo, Lolium multiflorum; details: postemergence, 10 days; for pest or weed control at 500 g/ha: 500 g ai/ha, visual injury, read-out: Plant response rating, Ryegrass, Italian
Outline: as §1

rice = assay: Test B flooded paddy test; type: in vivo, Oryza sativa; details: Oryza sativa, 312 h; 250 g ai/ha, Flood, 13 days, 0 to 100 scale (0 no effect, 100 complete control); read-out: Plant response rating, Rice
Outline: (§2)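 Plants at the 2-leaf stage were flooded to 3 cm above the soil, and test compounds were applied directly into the paddy water, with that depth held throughout. After 13 days in a greenhouse, injury was rated visually against untreated controls on a 0–100 scale (100 = complete control).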

oat, wild [2] = assay: Test A preemergence; type: in vivo, Avena fatua; details: 0 to 100 scale
Outline: as §1

blackgrass = assay: Test A preemergence; type: in vivo, Alopecurus myosuroides; details: 0 to 100 scale; for pest or weed control at 500 g/ha: 500 g ai/ha
Outline: as §1

soybean [3] = assay: Test A postemergence; type: in vivo, Glycine max; details: postemergence, 10 days; for plant injury at 500 g/ha: 500 g ai/ha, visual injury, read-out: Plant response rating, Soybean
Outline: as §1

ducksalad = assay: Test B flooded paddy test; type: in vivo, Heteranthera limosa; details: 250 g ai/ha, Flood, 13 days, 0 to 100 scale (0 no effect, 100 complete control)
Outline: as §2

oat, wild [4] = assay: Test A postemergence; type: in vivo, Avena fatua; details: postemergence, 10 days
Outline: as §1

soybean [5] = assay: Test A preemergence; type: in vivo, Glycine max; details: 0 to 100 scale
Outline: as §1

kochia [6] = assay: Test A postemergence; type: in vivo, Bassia scoparia; details: postemergence, 10 days; for pest or weed control at 500 g/ha: 500 g ai/ha, visual injury, read-out: Plant response rating, Kochia
Outline: as §1

ragweed = assay: Test A postemergence; type: in vivo, Ambrosia artemisiifolia; details: postemergence, 10 days
Outline: as §1

wheat = assay: Test A postemergence; type: in vivo, Triticum aestivum; details: postemergence, 10 days; for plant injury at 500 g/ha: 500 g ai/ha, visual injury, read-out: Plant response rating, Wheat
Outline: as §1

galium = assay: Test A postemergence; type: in vivo, Galium aparine; details: postemergence, 10 days; for pest or weed control at 500 g/ha: 500 g ai/ha, visual injury, read-out: Plant response rating, Galium
Outline: as §1

pigweed, palmer = assay: Test A preemergence; type: in vivo, Amaranthus palmeri; details: 0 to 100 scale; for pest or weed control at 500 g/ha: 500 g ai/ha
Outline: as §1

sedge, umbrella = assay: Test B flooded paddy test; type: in vivo, Cyperus difformis; details: Cyperus difformis, 312 h; 250 g ai/ha, Flood, 13 days, 0 to 100 scale (0 no effect, 100 complete control); read-out: Plant response rating, Sedge, Umbrella
Outline: as §2

[7] = Bassia scoparia, pre-emergence, 240 h, visual injury after 10 days, 0 is no effect, 100 is complete control, read-out: Plant response rating, Kochia
[8] = 125 g ai/ha, 0 to 100 scale, 0 no effect, 100 complete control
[9] = Lolium multiflorum, post-emergence, 240 h, 0 to 100 scale (0 no effect, 100 complete control)
[10] = 500 g ai/ha, visual injury after 10 days, 0 is no effect, 100 is complete control
[11] = Alopecurus myosuroides, pre-emergence, 240 h, visual injury after 10 days, 0 is no effect, 100 is complete control, read-out: Plant response rating, Blackgrass
[12] = Glycine max, post-emergence, 240 h, 0 to 100 scale (0 no effect, 100 complete control)
[13] = 500 g ai/ha, visual injury, 0 to 100 scale (0 no effect, 100 complete control)
[14] = Bassia scoparia, post-emergence, 240 h, 0 to 100 scale (0 no effect, 100 complete control)
[15] = Triticum aestivum, post-emergence, 240 h, 0 to 100 scale (0 no effect, 100 complete control)
[16] = Galium, post-emergence, 240 h, 0 to 100 scale (0 no effect, 100 complete control)
[17] = Amaranthus palmeri, pre-emergence, 240 h, visual injury after 10 days, 0 is no effect, 100 is complete control, read-out: Plant response rating, Pigweed, Palmer

CC(C)c1ncn(-c2cc(C(=O)N3C[C@H](C)Oc4c(Cl)cccc43)c3ccccc3c2)n1 [Compound 145]
Plant response rating, Kochia (kochia [1]; 125 g ai/ha): 70 | pest or weed control at 500 g/ha (kochia [1]; [7]): 50% | Ryegrass, Italian plant response rating (ryegrass, Italian; [8]): 30 | pest or weed control at 500 g/ha (ryegrass, Italian; [9]): 40% | plant injury at 250 g/ha (rice): 0% | Plant response rating, Oat, Wild (oat, wild [2]; 125 g ai/ha): 0 | Plant response rating, Oat, Wild (oat, wild [2]; [10]): 50 | Plant response rating, Blackgrass (blackgrass; 125 g ai/ha): 40 | pest or weed control at 500 g/ha (blackgrass; [11]): 80% | Soybean plant response rating (soybean [3]; [8]): 40 | plant injury at 500 g/ha (soybean [3]; [12]): 100% | Plant response rating, Ducksalad (ducksalad): 40 | Oat, Wild plant response rating (oat, wild [4]; [8]): 10 | Plant response rating, Oat, Wild (oat, wild [4]; [13]): 30 | Plant response rating, Soybean (soybean [5]; 125 g ai/ha): 0 | Plant response rating, Soybean (soybean [5]; [10]): 0 | Kochia plant response rating (kochia [6]; [8]): 70 | pest or weed control at 500 g/ha (kochia [6]; [14]): 80% | Ragweed plant response rating (ragweed; [8]): 0 | Plant response rating, Ragweed (ragweed; [13]): 10 | Wheat plant response rating (wheat; [8]): 30 | plant injury at 500 g/ha (wheat; [15]): 30% | Galium plant response rating (galium; [8]): 60 | pest or weed control at 500 g/ha (galium; [16]): 70% | Plant response rating, Pigweed, Palmer (pigweed, palmer; 125 g ai/ha): 80 | pest or weed control at 500 g/ha (pigweed, palmer; [17]): 100% | pest or weed control at 250 g/ha (sedge, umbrella): 0%

C[C@H]1CN(C(=O)c2cccc(-c3cnn(C)n3)c2)c2cccc(Cl)c2O1 [Compound 127, [(2S)-8-Chloro-2,3-dihydro-2-methyl-4H-1,4-benzoxazin-4-yl][3-(2-methyl-2H-1,2,3-triazol-4-yl)phenyl]methanone]
pest or weed control at 125 g/ha (kochia [1]; Bassia scoparia, pre-emergence, 240 h, 125 g ai/ha, visual injury after 10 days, 0 is no effect, 100 is complete control, read-out: Plant response rating, Kochia): 0% | pest or weed control at 500 g/ha (kochia [1]; [7]): 60% | pest or weed control at 125 g/ha (ryegrass, Italian; Lolium multiflorum, post-emergence, 240 h, 125 g ai/ha, 0 to 100 scale (0 no effect, 100 complete control), read-out: Ryegrass, Italian plant response rating): 10% | pest or weed control at 500 g/ha (ryegrass, Italian; [9]): 50% | plant injury at 250 g/ha (rice): 0% | pest or weed control at 125 g/ha (oat, wild [2]; Avena fatua, pre-emergence, 240 h, 125 g ai/ha, visual injury after 10 days, 0 is no effect, 100 is complete control, read-out: Plant response rating, Oat, Wild): 0% | pest or weed control at 500 g/ha (oat, wild [2]; Avena fatua, pre-emergence, 240 h, 500 g ai/ha, visual injury after 10 days, 0 is no effect, 100 is complete control, read-out: Plant response rating, Oat, Wild): 20% | pest or weed control at 125 g/ha (blackgrass; Alopecurus myosuroides, pre-emergence, 240 h, 125 g ai/ha, visual injury after 10 days, 0 is no effect, 100 is complete control, read-out: Plant response rating, Blackgrass): 20% | pest or weed control at 500 g/ha (blackgrass; [11]): 70% | plant injury at 125 g/ha (soybean [3]; Glycine max, post-emergence, 240 h, 125 g ai/ha, 0 to 100 scale (0 no effect, 100 complete control), read-out: Soybean plant response rating): 100% | plant injury at 500 g/ha (soybean [3]; [12]): 100% | pest or weed control at 250 g/ha (ducksalad; Heteranthera limosa, 312 h, read-out: Plant response rating, Ducksalad): 0% | pest or weed control at 125 g/ha (oat, wild [4]; Avena fatua, post-emergence, 240 h, 125 g ai/ha, 0 to 100 scale (0 no effect, 100 complete control), read-out: Oat, Wild plant response rating): 0% | pest or weed control at 500 g/ha (oat, wild [4]; Avena fatua, post-emergence, 240 h, 500 g ai/ha, visual injury, 0 to 100 scale (0 no effect, 100 complete control), read-out: Plant response rating, Oat, Wild): 10% | plant injury at 125 g/ha (soybean [5]; Glycine max, pre-emergence, 240 h, 125 g ai/ha, visual injury after 10 days, 0 is no effect, 100 is complete control, read-out: Plant response rating, Soybean): 0% | plant injury at 500 g/ha (soybean [5]; Glycine max, pre-emergence, 240 h, 500 g ai/ha, visual injury after 10 days, 0 is no effect, 100 is complete control, read-out: Plant response rating, Soybean): 0% | pest or weed control at 125 g/ha (kochia [6]; Bassia scoparia, post-emergence, 240 h, 125 g ai/ha, 0 to 100 scale (0 no effect, 100 complete control), read-out: Kochia plant response rating): 60% | pest or weed control at 500 g/ha (kochia [6]; [14]): 90% | pest or weed control at 125 g/ha (ragweed; Ambrosia artemisiifolia, post-emergence, 240 h, 125 g ai/ha, 0 to 100 scale (0 no effect, 100 complete control), read-out: Ragweed plant response rating): 0% | pest or weed control at 500 g/ha (ragweed; Ambrosia artemisiifolia, post-emergence, 240 h, 500 g ai/ha, visual injury, 0 to 100 scale (0 no effect, 100 complete control), read-out: Plant response rating, Ragweed): 10% | plant injury at 125 g/ha (wheat; Triticum aestivum, post-emergence, 240 h, 125 g ai/ha, 0 to 100 scale (0 no effect, 100 complete control), read-out: Wheat plant response rating): 10% | plant injury at 500 g/ha (wheat; [15]): 20% | pest or weed control at 125 g/ha (galium; Galium, post-emergence, 240 h, 125 g ai/ha, 0 to 100 scale (0 no effect, 100 complete control), read-out: Galium plant response rating): 60% | pest or weed control at 500 g/ha (galium; [16]): 100% | pest or weed control at 125 g/ha (pigweed, palmer; Amaranthus palmeri, pre-emergence, 240 h, 125 g ai/ha, visual injury after 10 days, 0 is no effect, 100 is complete control, read-out: Plant response rating, Pigweed, Palmer): 40% | pest or weed control at 500 g/ha (pigweed, palmer; [17]): 90% | pest or weed control at 250 g/ha (sedge, umbrella): 0%
